Each structure is given as a SMILES string. Counter-ions that a name gives are not always drawn.

The series is described as follows: Drug release (dissolution) of the controlled release tablets, USP apparatus Type I. The format is physicochemical. The following applies: 900 ml phosphate buffer pH 7.5, USP Type I basket 100 rpm, Example tablet. The method, then:
The tablets were characterized for drug release in 900 ml of phosphate buffer of pH 7.5. The USP apparatus Type I with basket speed at 100 rpm was used for the study. The samples of the media were periodically withdrawn and analyzed for drug content.

With `CN(C)C(=N)N=C(N)N` [Metformin Hydrochloride, Metformin hydrochloride], the “Cumulative percent drug released” value came to 28.83% (1 hour); 49.59% (2 hours); 64.74% (3 hours); 78.09% (4 hours); 88.49% (5 hours); 93.26% (6 hours). The “Cumulative percent drug released” value runs as follows: (8 hours) 97.29%; (10 hours) 100.01%; (12 hours) 103.93%; (15 hours) 105.57%; (18 hours) 105.92%; (21 hours) 105.99%. For the same compound, under “24 hours”, the “Cumulative percent drug released” value is listed as 106.47%.
As to `Cc1cnc(C(=O)NCCc2ccc(S(=O)(=O)NC(=O)NC3CCCCC3)cc2)cn1` [Glipizide], the “Cumulative percent drug released” value (1 hour) is recorded as 6.5%; the “Cumulative percent drug released” value (2 hours) was found to be 16.6%; the “Cumulative percent drug released” value (3 hours) is on record as 27.1%; the “Cumulative percent drug released” value (4 hours) was 33.9%; the “Cumulative percent drug released” value (5 hours) is given as 41.5%; the “Cumulative percent drug released” value (6 hours) is 47.3%. Besides, the “Cumulative percent drug released” value is, setting by setting: (8 hours) 55.4%; (10 hours) 67.9%; (12 hours) 75.2%; (15 hours) 85.8%; (18 hours) 93.0%; (21 hours) 99.4%. Further, the “Cumulative percent drug released” value (24 hours) stood at 102.5%.

The record behind these values is US20030219482A1, “Multiparticulate compositions for once-a-day administration” (priority 2002, published 2003).
